Source: patent publication US11827628B2, “Compositions and methods for inhibition of the JAK pathway” (Rigel Pharmaceuticals, Inc., priority 2005, dated 2023)

What follows are compounds tested on Primary human T-cells (assay: Primary Human T-Cell Proliferation Assay Stimulated with IL-2 (CellTiter-Glo)). Settings: primary human T-cell proliferation stimulated with IL-2; read-out: IC50, Example 42.
Format: cell-based
In short: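 Peripheral blood T-cells pre-activated with anti-CD3/anti-CD28 and IL-2 were washed free of IL-2, then cultured with compound plus IL-2 for 72 hours at 37° C, duplicate wells. Viability read as ATP by CellTiter-Glo luminescence; IC50 reported.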

| SMILES | IC50 [nM] |
| --- | --- |
| CNS(=O)(=O)c1cc(Nc2ncc(F)c(Nc3ccc(OCc4cccnc4)cc3)n2)ccc1C [Compound I-190, 5-Fluoro-N2-[3-(N-methylaminosulfony)-4-methylphenyl]-5-fluoro-N4-[4-(3-pyridinyl)methyleneoxyphenyl]-2,4-pyrimidinediamine] | 242 |
| CN1CCN(c2ccc(Nc3ncc(F)c(Nc4ccc(OCC#N)c(F)c4)n3)cc2S(N)(=O)=O)CC1 [Compound I-10, N2-[3-Aminosulfonyl-4-(4-methylpiperazine-1-yl)phenyl]-5-fluoro-N4-(4-cyanomethyleneoxy-3-fluorophenyl)-2,4-pyrimidinediamine] | 95.7 |
| Cc1cc(Nc2nc(Nc3ccc(S(N)(=O)=O)cc3)ncc2F)cc(C)c1OC(C)C(N)=O (racemic) [Compound I-122, Racemic N4-[4-(1-Aminocarbonyl)ethoxy-3,5-dimethyl]phenyl-N2-(4-aminosulfonyl)phenyl-5-fluoro-2,4-pyrimidinediamine] | 3500 |
| NS(=O)(=O)c1cccc(Nc2ncc(F)c(Nc3ccc(SCc4cccnc4)cc3)n2)c1 [Compound I-192, N2-(3-Aminosulfonylphenyl)-5-fluoro-N4-[4-(3-pyridinyl)-methylenethiophenyl]-2,4-pyrimidinediamine] | 155 |
| CNS(=O)(=O)c1cc(Nc2ncc(C)c(Nc3ccc(OCc4ccccn4)cc3)n2)ccc1C [Compound I-180, 5-Methyl-N2-[3-(N-methylaminosulfony)-4-methylphenyl]-N4-[4-(2-pyridinyl)methyleneoxyphenyl]-2,4-pyrimidinediamine] | 28.7 |
| Cc1ccc(Nc2ncc(F)c(Nc3ccc(OCc4ccccn4)cc3)n2)cc1S(N)(=O)=O [Compound I-160, N2-(3-Aminosulfonyl-4-methylphenyl)-5-fluoro-N4-[4-(2-pyridinyl)methyleneoxyphenyl]-2,4-pyrimidinediamine] | 248 |
| CC(C)(Oc1ccc(Nc2nc(Nc3cccc(S(N)(=O)=O)c3)ncc2F)cc1)C(N)=O [Compound I-126, N4-[4-(1-Aminocarbonyl-1-methyl)ethoxy]phenyl-N2-(3-aminosulfonyl)phenyl-5-fluoro-2,4-pyrimidinediamine] | 610 |
| CNS(=O)(=O)c1cc(Nc2ncc(F)c(Nc3ccc(-c4ccccn4)c(OCF)c3)n2)ccc1C [Compound I-173, 5-Fluoro-N2-[3-N-(methyl)aminosulfonyl-4-methylphenyl]-N4-[4-(2-pyridinyl)-3-fluoromethyleneoxyphenyl]-2,4-pyrimidinediamine] | 907 |

Same assay, conditions: primary human T-cells stimulated with IL-2, proliferation; read-out: IC50, Example 42

| SMILES | IC50 [nM] |
| --- | --- |
| NS(=O)(=O)c1cccc(Nc2ncc(F)c(Nc3ccc(OCC(F)(F)F)cc3)n2)c1 [VI-47, N2-(3-Aminosulfonylphenyl)-5-fluoro-N4-(4-trifluoromethylmethyleneoxyphenyl)-2,4-pyrimidinediamine] | 259 |
| CN1C(=O)C(C)(C)Oc2cc(Nc3nc(Nc4cccc(S(N)(=O)=O)c4)ncc3F)cnc21 [VII-42, N2-(3-Aminosulfonylphenyl)-N4-[2,2,4-trimethyl-3-oxo-5-pyrid[1,4]oxazin-7-yl]-5-fluoro-2,4-pyrimidinediamine] | 7280 |
| COCCCn1ncc2cc(Nc3nc(Nc4cccc(S(N)(=O)=O)c4)ncc3F)ccc21 [VII-22, N2-(3-Aminosulfonylphenyl)-5-fluoro-N4-[1-(3-methoxypropyl)indazolin-5-yl]-2,4-pyrimidinediamine] | 128 |
| COc1ccc(Nc2nc(Nc3cc(C)c4c(c3)S(=O)(=O)NC=N4)ncc2F)cc1Cl [VIII-3, N4-(3-Chloro-4-methoxyphenyl)-5-fluoro-N2-(5-methyl-2H-1,1-dioxo-1,2,4-benzothiadiazin-7-yl)-2,4-pyrimidinediamine] | 1840 |
| CNS(=O)(=O)c1cc(Nc2ncc(F)c(Nc3ccc4c(c3)CCN4S(C)(=O)=O)n2)ccc1C [VII-62, 5-Fluoro-N2-[3-(N-methylaminosulfony)-4-methylphenyl]-N4-[4-(1-methylsulfonyl)indolin-5-yl]-2,4-pyrimidinediamine] | 144 |

What follows are compounds tested on up-regulation of ICAM-1 (CD54) by IFNγ in A549 lung epithelial cells (assay: A549 Epithelial Line Stimulated with IFNγ (ICAM-1 surface expression, FACS)). Settings: A549 epithelial line stimulated with IFNγ; ICAM-1 expression by FACS; read-out: IC50, Example 43.
Format: cell-based, human
In short: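 A549 cells pre-incubated 1 h with compound (30 μM to 14 nM, 5% FBS, 0.3% DMSO), then stimulated with IFNγ (75 ng/mL) for 24 h. Surface ICAM-1 stained with APC anti-CD54 and read by flow cytometry; geometric mean of live-gated events plotted against concentration for EC50.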

| IC50 [nM] | SMILES |
| --- | --- |
| 9310 | CNS(=O)(=O)c1cc(Nc2ncc(F)c(Nc3ccc(OCc4cccnc4)cc3)n2)ccc1C [Compound I-190, 5-Fluoro-N2-[3-(N-methylaminosulfony)-4-methylphenyl]-5-fluoro-N4-[4-(3-pyridinyl)methyleneoxyphenyl]-2,4-pyrimidinediamine] |
| 6550 | CN1CCN(c2ccc(Nc3ncc(F)c(Nc4ccc(OCC#N)c(F)c4)n3)cc2S(N)(=O)=O)CC1 [Compound I-10, N2-[3-Aminosulfonyl-4-(4-methylpiperazine-1-yl)phenyl]-5-fluoro-N4-(4-cyanomethyleneoxy-3-fluorophenyl)-2,4-pyrimidinediamine] |
